Laboratory results as given in the NIST ThermoML archive (doi:10.1016/j.jct.2019.06.017).
Several values for one entry are separate records, joined by “and”; a condition that tells them apart may be missing. Identical values can stand only once. ± gives the expanded uncertainty stated by the source.

Assay: Boiling temperature at pressure P
Settings: Liquid, Ebulliometric method (Recirculating still)

Structure (SMILES)	Boiling temperature at pressure P (2.8 kPa) [°C]	Boiling temperature at pressure P (19.8 kPa) [°C]	Boiling temperature at pressure P (69.8 kPa) [°C]	Boiling temperature at pressure P (4.8 kPa)	Boiling temperature at pressure P (9.8 kPa) [°C]	Boiling temperature at pressure P (29.8 kPa) [°C]	Boiling temperature at pressure P (39.8 kPa) [°C]	Boiling temperature at pressure P (49.8 kPa) [°C]	Boiling temperature at pressure P (59.8 kPa) [°C]	Boiling temperature at pressure P (79.8 kPa) [°C]	Boiling temperature at pressure P (89.8 kPa) [°C]	also measured
CCN(CC)CCCO [3-diethylamino-1-propanol]	87.1 ± 6	132.2 ± 3.5	169.1 ± 1									Boiling temperature at pressure P (1.8 kPa): 80.8 ± 6.5 °C; Boiling temperature at pressure P (22.3 kPa): 136.1 ± 3.1 °C; Boiling temperature at pressure P (24.8 kPa): 139.0 ± 2 °C; Boiling temperature at pressure P (34.8 kPa): 147.1 ± 1.7 °C; Boiling temperature at pressure P (44.8 kPa): 154.2 ± 1.5 °C; Boiling temperature at pressure P (54.8 kPa): 160.2 ± 1.5 °C; Boiling temperature at pressure P (64.8 kPa): 167.0 ± 1.4 °C
CN(C)CCCO [3-dimethylamino-1-propanol]		112.7 ± 2.7	148.6 ± 1.1	79.2 ± 7.2 °C and 79.8 ± 7 °C	95.2 ± 5.9	123.7 ± 2.2	132 ± 1.7	138.5 ± 1.4	144.1 ± 1.2	153.2 ± 1	156.8 ± 0.9	Boiling temperature at pressure P (14.8 kPa): 105.4 ± 4 °C; Boiling temperature at pressure P (99.8 kPa): 160.6 ± 0.9 °C
O [water]		60 ± 2.7	90.0 ± 0.9		45.2 ± 3.3	69.0 ± 1.8	75.8 ± 1.4	81.2 ± 1.2	86.0 ± 1	93.6 ± 0.7		Boiling temperature at pressure P (100.1 kPa): 99.5 ± 0.7 °C
OCCN1CCCC1 [1-(2-hydroxyethyl)pyrrolidine]	87.5 ± 13	132.4 ± 3.2	169.5 ± 1	99.1 ± 8.8 °C	115.7 ± 4.9	144 ± 2.3	153.0 ± 1.8	159.5 ± 1.4	165.0 ± 1.2	173.8 ± 0.8	176.7 ± 0.7	
